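How tested: cells in 96-well plates exposed to compound for 48 hours at five concentrations. TGI marks complete inhibition of growth.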
Key:
Assay in all cases: DTP human tumour cell line panel, 48 h
[1] = tested on: SK-OV-3 ovarian
[2] = tested on: SF-295 CNS
[3] = tested on: 786-0 renal
[4] = tested on: U251 CNS
[5] = tested on: HT29 colon
[6] = tested on: NCI-H522 lung
[7] = tested on: MDA-N
[8] = tested on: CCRF-CEM leukemia
[9] = tested on: EKVX NSCLC
[10] = tested on: NCI-H226 lung
[11] = tested on: CAKI-1 renal
[12] = tested on: ACHN renal
[13] = tested on: BT-549 breast
[14] = tested on: OVCAR-8 ovarian
[15] = tested on: T-47D breast
[16] = tested on: SN12C renal
[17] = tested on: DU-145 prostate
[18] = tested on: M14 melanoma
[19] = tested on: SK-MEL-5 melanoma
[20] = tested on: IGROV1 ovarian
[21] = tested on: TK-10 renal
[22] = tested on: SK-MEL-2 melanoma
[23] = tested on: UO-31 renal
[24] = tested on: A498 renal
[25] = tested on: SW-620 colon
[26] = tested on: HCT-15 colon
[27] = tested on: OVCAR-5 ovarian
[28] = tested on: HCT-116 colon
[29] = tested on: MOLT-4 leukemia
[30] = tested on: HCC-2998 colon
[31] = tested on: UACC-257 melanoma
[32] = tested on: NCI-H23 lung
[33] = tested on: SF-268 CNS
[34] = tested on: PC-3 prostate
[35] = tested on: MALME-3M melanoma
[36] = tested on: SF-539 CNS
[37] = tested on: NCI-H460 lung
[38] = tested on: KM12 colon
[39] = tested on: HL-60(TB) leukemia
[40] = tested on: SK-MEL-28 melanoma
[41] = tested on: OVCAR-4 ovarian
[42] = tested on: MCF7 breast
[43] = tested on: SNB-75 CNS
[44] = tested on: A549 NSCLC
[45] = tested on: K-562 leukemia
[46] = tested on: COLO 205 colon
[47] = tested on: SR leukemia
[48] = tested on: LOX IMVI melanoma
[49] = tested on: MDA-MB-435
[50] = tested on: SNB-19 CNS
[51] = tested on: HOP-92 NSCLC
[52] = tested on: NCI/ADR-RES ovarian
[53] = tested on: HS 578T breast
[54] = tested on: MDA-MB-231 breast
[55] = tested on: UACC-62 melanoma
[56] = tested on: OVCAR-3 ovarian
[57] = tested on: HOP-62 NSCLC
[58] = tested on: RPMI-8226 leukemia

What does the source list for COc1ccc2cc1Oc1ccc(cc1)CC1c3cc(OC)c(cc3CCN1C)Oc1c(OC)c(OC)cc3c1C(C2)N(C)CC3 (centres undefined)?
TGI [1]: > 75 µM; TGI [2]: 21.1 µM; TGI [3]: 30.4 µM; TGI [4]: 24.6 µM; TGI [5]: 18 µM; TGI [6]: 20.6 µM; TGI [7]: 20.3 µM; TGI [8]: 42.4 µM; TGI [9]: 31.7 µM; TGI [10]: 51.7 µM; TGI [11]: 29.4 µM; TGI [12]: 19 µM; TGI [13]: 20.9 µM; TGI [14]: 23.2 µM; TGI [15]: 20.5 µM; TGI [16]: 18.3 µM; TGI [17]: 27.9 µM; TGI [18]: 15 µM; TGI [19]: 15.9 µM; TGI [20]: 64.2 µM; TGI [21]: 20.6 µM; TGI [22]: 25.6 µM; TGI [23]: 18.8 µM; TGI [24]: 23.9 µM; TGI [25]: > 75 µM; TGI [26]: 18.3 µM; TGI [27]: > 75 µM; TGI [28]: > 75 µM; TGI [29]: 32.4 µM; TGI [30]: 19.1 µM; TGI [31]: 16.1 µM; TGI [32]: 35.6 µM; TGI [33]: 33.6 µM; TGI [34]: 40.7 µM; TGI [35]: 23.1 µM; TGI [36]: 19.5 µM; TGI [37]: 19.8 µM; TGI [38]: 26 µM; TGI [39]: 16.3 µM; TGI [40]: 34.9 µM; TGI [41]: 24.4 µM; TGI [42]: 36.7 µM; TGI [43]: 18.2 µM; TGI [44]: 53.4 µM; TGI [45]: 28.7 µM; TGI [46]: 11.8 µM; TGI [47]: 4.33 µM; TGI [48]: 28 µM; TGI [49]: 26.2 µM; TGI [50]: 27.1 µM; TGI [51]: 34.1 µM; TGI [52]: 29.9 µM; TGI [53]: 25.6 µM; TGI [54]: 21.5 µM; TGI [55]: 23.3 µM

With O=C1CSC(c2cccc(Cl)c2)N1c1ccc(-n2c(-c3ccccc3)nc3ccccc3c2=O)cc1 (centres undefined) as the compound, how does the TGI [1] read?
The TGI was > 100 µM.

And the TGI [2]?
The TGI was > 100 µM.

What about the TGI [3] of the same compound?
Its TGI is > 100 µM.

What about the TGI [4] of the same compound?
Its TGI is > 100 µM.

What about the TGI [5] of the same compound?
Its TGI is > 100 µM.

What about the TGI [6] of the same compound?
The TGI was > 100 µM.

What about the TGI [7] of the same compound?
The TGI was > 100 µM.

And the TGI [8]?
Its TGI is > 100 µM.

And the TGI [9]?
Its TGI is > 100 µM.

What about the TGI [11] of the same compound?
Its TGI is > 100 µM.

And the TGI [12]?
Its TGI is > 100 µM.

What about the TGI [56] of the same compound?
Its TGI is > 100 µM.

What about the TGI [13] of the same compound?
The TGI was > 100 µM.

What about the TGI [14] of the same compound?
The TGI was > 100 µM.

What about the TGI [15] of the same compound?
Its TGI is > 100 µM.

And the TGI [16]?
The TGI was > 100 µM.

And the TGI [17]?
The TGI was > 100 µM.

And the TGI [19]?
The TGI was > 100 µM.

And the TGI [20]?
The TGI was > 100 µM.

What about the TGI [21] of the same compound?
Its TGI is > 100 µM.

What about the TGI [22] of the same compound?
Its TGI is > 100 µM.

And the TGI [23]?
The TGI was 24.7 µM.

And the TGI [24]?
Its TGI is > 100 µM.

And the TGI [25]?
Its TGI is > 100 µM.

What about the TGI [26] of the same compound?
The TGI was > 100 µM.

What about the TGI [27] of the same compound?
Its TGI is > 100 µM.

What about the TGI [28] of the same compound?
Its TGI is > 100 µM.

And the TGI [29]?
Its TGI is > 100 µM.

What about the TGI [30] of the same compound?
The TGI was > 100 µM.

What about the TGI [57] of the same compound?
The TGI was > 100 µM.

And the TGI [31]?
Its TGI is > 100 µM.

And the TGI [32]?
The TGI was > 100 µM.

And the TGI [33]?
The TGI was > 100 µM.

And the TGI [34]?
The TGI was > 100 µM.

What about the TGI [35] of the same compound?
Its TGI is > 100 µM.

And the TGI [36]?
The TGI was > 100 µM.

What about the TGI [37] of the same compound?
Its TGI is > 100 µM.

What about the TGI [38] of the same compound?
The TGI was > 100 µM.

And the TGI [39]?
The TGI was > 100 µM.

And the TGI [40]?
Its TGI is > 100 µM.

And the TGI [41]?
Its TGI is 62.9 µM.

What about the TGI [42] of the same compound?
The TGI was > 100 µM.

And the TGI [44]?
Its TGI is > 100 µM.

And the TGI [58]?
Its TGI is > 100 µM.

And the TGI [45]?
The TGI was > 100 µM.

What about the TGI [46] of the same compound?
Its TGI is > 100 µM.

And the TGI [47]?
The TGI was > 100 µM.

And the TGI [48]?
Its TGI is > 100 µM.

And the TGI [49]?
The TGI was > 100 µM.

What about the TGI [50] of the same compound?
Its TGI is > 100 µM.

And the TGI [51]?
The TGI was > 100 µM.

And the TGI [52]?
Its TGI is > 100 µM.

And the TGI [53]?
The TGI was > 100 µM.

And the TGI [54]?
Its TGI is > 100 µM.

What about the TGI [55] of the same compound?
The TGI was > 100 µM.

How did the TGI [2] turn out when Nc1nc2c(c(=O)[nH]1)CN(CCCN1CCOCC1)CN2 was run?
Its TGI is > 100 µM.

What about the TGI [3] of the same compound?
Its TGI is > 100 µM.

And the TGI [4]?
Its TGI is > 100 µM.

What about the TGI [5] of the same compound?
The TGI was > 100 µM.

And the TGI [6]?
Its TGI is > 100 µM.

And the TGI [7]?
Its TGI is > 100 µM.

What about the TGI [9] of the same compound?
Its TGI is > 100 µM.

What about the TGI [10] of the same compound?
The TGI was > 100 µM.

What about the TGI [11] of the same compound?
The TGI was > 100 µM.

What about the TGI [12] of the same compound?
The TGI was > 100 µM.

And the TGI [56]?
Its TGI is > 100 µM.

And the TGI [13]?
The TGI was > 100 µM.

And the TGI [14]?
Its TGI is > 100 µM.

And the TGI [15]?
Its TGI is > 100 µM.

What about the TGI [16] of the same compound?
The TGI was > 100 µM.

What about the TGI [17] of the same compound?
The TGI was > 100 µM.

And the TGI [18]?
Its TGI is > 100 µM.

What about the TGI [19] of the same compound?
The TGI was > 100 µM.

And the TGI [20]?
Its TGI is > 100 µM.

What about the TGI [21] of the same compound?
The TGI was > 100 µM.

And the TGI [22]?
Its TGI is > 100 µM.

What about the TGI [23] of the same compound?
The TGI was > 100 µM.

What about the TGI [24] of the same compound?
The TGI was > 100 µM.

What about the TGI [25] of the same compound?
Its TGI is > 100 µM.

What about the TGI [26] of the same compound?
Its TGI is > 100 µM.

And the TGI [27]?
Its TGI is > 100 µM.

What about the TGI [28] of the same compound?
The TGI was > 100 µM.

And the TGI [29]?
Its TGI is > 100 µM.

And the TGI [30]?
Its TGI is > 100 µM.

And the TGI [57]?
Its TGI is > 100 µM.

And the TGI [31]?
Its TGI is > 100 µM.

What about the TGI [32] of the same compound?
The TGI was > 100 µM.

And the TGI [33]?
The TGI was > 100 µM.

And the TGI [34]?
Its TGI is > 100 µM.

What about the TGI [35] of the same compound?
The TGI was > 100 µM.

What about the TGI [36] of the same compound?
The TGI was > 100 µM.

What about the TGI [37] of the same compound?
Its TGI is > 100 µM.

What about the TGI [38] of the same compound?
The TGI was > 100 µM.

And the TGI [40]?
The TGI was > 100 µM.

And the TGI [41]?
Its TGI is > 100 µM.

And the TGI [42]?
Its TGI is > 100 µM.

What about the TGI [44] of the same compound?
The TGI was > 100 µM.

And the TGI [58]?
The TGI was > 100 µM.

What about the TGI [45] of the same compound?
The TGI was > 100 µM.

What about the TGI [46] of the same compound?
Its TGI is > 100 µM.

And the TGI [47]?
Its TGI is > 100 µM.

And the TGI [48]?
Its TGI is > 100 µM.

What about the TGI [49] of the same compound?
Its TGI is > 100 µM.

What about the TGI [50] of the same compound?
The TGI was > 100 µM.

What about the TGI [51] of the same compound?
Its TGI is > 100 µM.

What about the TGI [52] of the same compound?
The TGI was > 100 µM.

And the TGI [53]?
Its TGI is > 100 µM.

What about the TGI [54] of the same compound?
The TGI was > 100 µM.

And the TGI [55]?
Its TGI is > 100 µM.
